The target of the assay is T1, AtCKA1 (Arabidopsis thaliana, UniProt Q08467).
T1 sequence (Q08467 76-409): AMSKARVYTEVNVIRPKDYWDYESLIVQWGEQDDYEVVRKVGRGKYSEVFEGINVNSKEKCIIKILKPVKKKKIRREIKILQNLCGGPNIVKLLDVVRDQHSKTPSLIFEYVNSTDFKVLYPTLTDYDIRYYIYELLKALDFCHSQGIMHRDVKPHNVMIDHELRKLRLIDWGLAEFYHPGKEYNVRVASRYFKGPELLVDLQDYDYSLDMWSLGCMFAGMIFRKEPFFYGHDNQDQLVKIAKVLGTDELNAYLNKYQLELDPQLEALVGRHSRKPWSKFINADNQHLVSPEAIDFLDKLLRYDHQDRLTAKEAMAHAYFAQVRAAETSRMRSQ
As to the kind of experiment: biochemical.

With `O=P(O)(O)O[C@H]1[C@H](OP(=O)(O)O)[C@@H](OP(=O)(O)O)[C@H](OP(=O)(O)O)[C@@H](OP(=O)(O)O)[C@H]1OP(=O)(O)O` [InsP6], the affinity, expressed as Kd, was 2 µM.

Values taken from paper doi:10.1101/2025.11.27.691040v1 (biorxiv, 2025).
